# In publication PMC11477209, “Toxicological Evaluation of Kaempferol and Linearolactone as Treatments for Amoebic Liver Abscess Development in Mesocricetus auratus” (International Journal of Molecular Sciences, 2024):
# Legend:
# [1] = tested on: E. histolytica trophozoites (virulent HM-1 strain); details: 48 h
# [2] = tested on: E. histolytica trophozoites (virulent HM-1 strain); assay: microbe, parasite or virus in culture; details: Entamoeba histolytica, 48 h, read-out: IC50 HM-1, 48 h, flow cytometry
# BEAS-2B cells = assay: MTT cytotoxicity assay; assay type: cell-based, human; details: 24 h
# [3] = tested on: E. histolytica trophozoites; details: 48 h; ref [12],[13]; read-out: IC50 E. histolytica trophozoites (antiproliferative activity); cited from earlier work
# [4] = in vivo
# Experimental: After blood samples were obtained, the hamsters were sacrificed with a lethal dose of sodium pentobarbital, followed by a cervical fracture. They were mounted on a dissecting board for the necropsy. A complete mid-laparotomy was performed to remove the lungs, spleen, heart, liver, and kidneys. An excisional biopsy was performed to recover the ALA lesions for morphometric analysis. The organs and ALA lesions were rinsed with 1× PBS, weighed, and adherent tissue was removed. […] Later, the inclusion protocol was performed to obtain histological sections (3 μm thick) with a rotatory microtome (RM2125-RTS, Leica; Wetzlar, Germany). Tissue slices were stained with hematoxylin-eosin (Merck; Rahway, NJ, USA), mounted on coverslips with Entellan^TM-New (Merck; Rahway, NJ, USA), and observed with optical microscopy (Eclipse 80i, Nikon; Tokio, Japan).
# [5] = ALA hamsters
# [6] = tested on: E. histolytica trophozoites (amoebic liver abscess); assay: Amoebic liver abscess (ALA) model, antiparasitic protocol; assay type: in vivo, Mesocricetus auratus
# Source text: M. auratus was used as an animal model because the hamster is naturally susceptible to infection by E. histolytica and can develop amoebic colitis or extraintestinal complications such as an ALA [71]. In this context, the hamster can be used to search for new alternative therapeutic agents against amoebiasis. The hamsters were acquired from Charles River Laboratories Inc. (Wilmington, MA, USA) in 2017 by Centro de Investigación y de Estudios Avanzados del Instituto Politécnico Nacional ([…]-IPN). […] Male hamsters (sexually mature and homozygous) weighing 95 ± 5 g and ≈10 weeks old were selected for the experiments. They were maintained in aseptic conditions at 25 ± 1 °C, 50 ± 3% humidity, a 12 h photoperiod, and ad libitum access to a standard diet (LabDiet; Richmond, IN, USA) and water (Figure 5A). The hamsters were housed in polycarbonate boxes (five per box), with an American Iron and Steel Institute (AISI) lid and wood shavings as bedding, in a controlled room of the Animal Production and Experimentation Unit (UPEAL) from […]-IPN (Figure 5A). Additionally, the health state of the hamsters and their adaptation to the new laboratory conditions were evaluated for 15 days to decrease their stress and anxiety levels. This study was carried out according to the Official Mexican Regulations (NOM-062-ZOO-1999) and NC3Rs ARRIVE [60, 72]. The protocol was approved by the Institutional Animal Care and Use Committee (Reg. No. 0183-16). Finally, the hamsters were not subjected to any previous experimental procedure or any additional treatment before beginning the experimental procedures (see File S1, NC3Rs ARRIVE Guidelines Checklist). Compounds that are prohibited and/or not recommended for use in animals by the American Veterinary Medical Association (Guidelines for the Euthanasia of Animals) were not used.
# These experiments were performed with three independent biological replicates. For each replicate, twenty-five hamsters were randomly distributed (simple type) into five experimental groups (five animals per group). The sample size was determined based on the Organization for Economic Cooperation and Development (OECD) recommendations that establish the minimum number of individuals required for the tests so as not to sacrifice animals unnecessarily. Laparotomy was performed in aseptic conditions by using depilation, iodine solution, as well as sterile field cloths. Subsequently, an intra-hepatic puncture was made to deliver 1.5 × 10^6 virulent E. histolytica trophozoites in 100 μL of 1× PBS into the left hepatic lobe for ALA induction (Figure 5A-3). The injection site was immediately covered by applying a gel foam pad to maintain hemostasis. The abdominal layers were sutured discontinuously by single vertical stitches using Vicryl synthetic absorbable suture with a triangular pointed half circle needle. Irregular edges or folds in the surgical wound were eliminated to avoid tissue devitalization or possible infections. The development of a hepatic ALA was monitored for 4 days (Figure 5A-4).
# (Figure 5B). The compounds were administered by the i.p. route because the peritoneal cavity presents rapid fluid absorption into the bloodstream, and initial biotransformation by the gastrointestinal tract is avoided. […] The hamsters were evaluated 24 h post-treatment to detect any signs of discomfort/pain or toxicity. The humane endpoint criteria used in this study were >20% body weight loss overnight, cachexia, recumbence, lethargy, respiratory distress, inability to reach food and water, lack of grooming, and ulceration around the surgical site, among others. Additionally, the weight of hamsters was determined at the beginning and end of the experiment with an electronic bascule (CS200, Ohaus; Parsippany, NJ, USA), and the ALA volume was calculated based on imaging (Figure 5B-1). […]
# [7] = tested on: E. histolytica trophozoites; assay: Cell morphology by confocal microscopy (actin); assay type: cell-based, Entamoeba histolytica; details: phalloidin-rhodamine, treatment with IC50
# Experimental: Then, the culture medium was removed, and the adhered cells were fixed with 4% paraformaldehyde for 1 h at 37 °C. The samples were washed three times with 1× PBS and incubated with 1:50 phalloidin–rhodamine (R415, Invitrogen; Carlsbad, CA, USA) for 1 h at 37 °C. Finally, the cells were washed, mounted with VectaShield/DAPI medium (Vector Laboratories; Newark, CA, USA), and observed with a confocal microscope (LSM-700, Zeiss; Oberkochen, Germany).
# [8] = MTZ 0.16, KP 31.6, LL 15.6 μg/mL
structure (smiles),measurement,setting,value
"C[C@]12C[C@H](c3ccoc3)OC(=O)[C@H]1CCC13COC(=O)C1=CC=C[C@H]32 (stereo partly drawn) [LL, (4S,7R,9R,10S)-7-(furan-3-yl)-9-methyl-6,16-dioxatetracyclo[8.7.0.01,14.04,9]heptadeca-11,13-diene-5,15-dione]",biological activity symbol on IC50 HM-1,[1],+
same,IC50 HM-1,[1]; flow cytometry,< 7.8 µg/mL
same,apoptotic trophozoites,[1]; [8],4.3%
same,necrotic trophozoites,[1]; [8],90.1%
same,decrease of size and granularity of the cell population,"[1]; MTZ 0.16, KP 31.6, LL 15.6 μg/mL, vs Vh",66%
same,IC50,[2],7.8 µg/mL
same,biological activity symbol on IC50 BEAS-2B,BEAS-2B cells,-
same,IC50,"BEAS-2B cells; Homo sapiens, BEAS-2B",200 µg/mL
same,IC50,[3],22.9 µM
same,Heart largest diameter,[4],1.1 ± 0.07 cm
same,Heart weight,[4],0.38 ± 0.08 g
same,Kidneys largest diameter,[4],1.1 ± 0.08 cm
same,Kidneys weight,[4],0.49 ± 0.07 g
same,Liver largest diameter,[4],3.94 ± 0.16 cm
same,Liver weight,[4],5.5 ± 0.9 g
same,Lungs largest diameter,[4],2.4 ± 0.1 cm
same,Lungs weight,[4],0.74 ± 0.06 g
same,Spleen largest diameter,[4],3.4 ± 0.4 cm
same,Spleen weight,[4],0.26 ± 0.05 g
same,change in body weight compared with the control (disease-free) group,[5],−0.21%
same,Hamster weight,[5]; i.p. 4 days,93.4 ± 7.2 g
same,Survival rate,[5]; i.p. 4 days,100%
same,Toxicity signs,[5]; i.p. 4 days,None
same,Edges,[6]; ALA characteristics,Regular and well defined
same,Leukocyte infiltrate,[6]; ALA characteristics,+/−
same,Liquid,[6]; ALA characteristics,−
same,Morphology,[6]; ALA characteristics,Loculated ovoid
same,ALA Volume,"[6]; MRI, i.p. 4 days",562.3 ± 23.3 * mm^3
same,MRI T1 signal of ALA,[6]; T1,Intermediate intensity
same,MRI T2 signal of ALA,[6]; T2,hypointense
same,ALA Weight,"[6]; i.p. 4 days, KP 5, LL 10, MTZ 10 mg/kg/day",0.40 ± 0.20 g
same,actin cytoskeleton alteration,[7],reduction in polymerized actin
